We go through two molecules from ChEMBL document CHEMBL4325871 (Eur J Med Chem, 2019).

Each structure is given as a SMILES string. Active and inactive are the calls of the source. The rule behind the calls is not given here.

Test [1] has as its target Tyrosine-protein kinase JAK1 (Homo sapiens) (UniProt P23458). The experiment in a line: Inhibition of human JAK1 assessed as residual activity at 1 uM using poly[Glu:Tyr] (4:1) as substrate by [gamma-33P]-ATP assay relative to control.
Test [2] deals with Serine/threonine-protein kinase tousled-like 2 (Homo sapiens) (UniProt Q86UE8). The test can be described thus: Inhibition of human TLK2 assessed as residual activity at 1 uM using casein as substrate by [gamma-33P]-ATP assay relative to control.
Test [3] has as its target CDK2/Cyclin A2 (Homo sapiens) (UniProt P24941+P20248). The test can be described thus: Inhibition of human CDK2/cyclin-A assessed as residual activity at 1 uM using histone H1 as substrate by [gamma-33P]-ATP assay relative to control. Type of test: protein-complex assay.
Test [4] concerns the target Myosin light chain kinase 2, skeletal/cardiac muscle (Homo sapiens) (UniProt Q9H1R3). The experiment in a line: Inhibition of human MLCK2 assessed as residual activity at 1 uM using KKLNRTLSFAEPG as substrate by [gamma-33P]-ATP assay relative to control.
The target of test [5] is Serine/threonine-protein kinase STK11 (Homo sapiens) (UniProt Q15831). The test can be described thus: Inhibition of human LKB1 assessed as residual activity at 1 uM using LSNLYHQGKFLQTFCGSPLYRRR as substrate by [gamma-33P]-ATP assay relative to control.
The target of test [6] is CDK6/cyclin D1 (Homo sapiens) (UniProt P24385+Q00534). The test can be described thus: Inhibition of human CDK6/cyclin-D1 assessed as residual activity at 1 uM using RB protein as substrate by [gamma-33P]-ATP assay relative to control. Type of test: protein-complex assay.
Test [7] addresses Calcium/calmodulin-dependent protein kinase type 1B (Homo sapiens) (UniProt Q6P2M8). The test can be described thus: Inhibition of human CAMK1B assessed as residual activity at 1 uM using KKALRRQETVDAL as substrate by [gamma-33P]-ATP assay relative to control.
The target in test [8] is High affinity nerve growth factor receptor (Homo sapiens) (UniProt P04629). The experiment in a line: Inhibition of human TRKA assessed as residual activity at 1 uM using poly[Glu:Tyr] (4:1) as substrate by [gamma-33P]-ATP assay relative to control.
For test [9], the target named is Serine/threonine-protein kinase DCLK2 (Homo sapiens) (UniProt Q8N568). The test can be described thus: Inhibition of human DCAMKL2 assessed as residual activity at 1 uM using KKLNRTLSFAEPG as substrate by [gamma-33P]-ATP assay relative to control.
For test [10], the target named is Mitogen-activated protein kinase kinase kinase 19 (Homo sapiens) (UniProt Q56UN5). The test can be described thus: Inhibition of human YSK4 assessed as residual activity at 1 uM using MBP as substrate by [gamma-33P]-ATP assay relative to control.
In test [11] the target is Ephrin type-B receptor 3 (Homo sapiens) (UniProt P54753). The experiment in a line: Inhibition of human EPHB3 assessed as residual activity at 1 uM using poly[Glu:Tyr] (4:1) as substrate by [gamma-33P]-ATP assay relative to control.
Test [12] has as its target Serine/threonine-protein kinase TAO1 (Homo sapiens) (UniProt Q7L7X3). The experiment in a line: Inhibition of human TAOK1 assessed as residual activity at 1 uM using MBP as substrate by [gamma-33P]-ATP assay relative to control.
The target in test [13] is Misshapen-like kinase 1 (Homo sapiens) (UniProt Q8N4C8). The test can be described thus: Inhibition of human MINK1 assessed as residual activity at 1 uM using MBP as substrate by [gamma-33P]-ATP assay relative to control.
Test [14] concerns the target Dual specificity mitogen-activated protein kinase kinase 1 (Homo sapiens) (UniProt Q02750). The test can be described thus: Inhibition of human MEK1 assessed as residual activity at 1 uM using ERK2 as substrate by [gamma-33P]-ATP assay relative to control.
The target of test [15] is Leucine-rich repeat serine/threonine-protein kinase 2 (Homo sapiens) (UniProt Q5S007). The experiment in a line: Inhibition of human LRRK2 assessed as residual activity at 1 uM using RLGRDKYKTLRQIRQ as substrate by [gamma-33P]-ATP assay relative to control.
The target in test [16] is Mitogen-activated protein kinase kinase kinase 12 (Homo sapiens) (UniProt Q12852). The test can be described thus: Inhibition of human DLK assessed as residual activity at 1 uM using MBP as substrate by [gamma-33P]-ATP assay relative to control.
Test [17] has as its target T1, Serine/threonine-protein kinase Chk1 (Homo sapiens) (UniProt O14757).
T1 sequence (whole entry): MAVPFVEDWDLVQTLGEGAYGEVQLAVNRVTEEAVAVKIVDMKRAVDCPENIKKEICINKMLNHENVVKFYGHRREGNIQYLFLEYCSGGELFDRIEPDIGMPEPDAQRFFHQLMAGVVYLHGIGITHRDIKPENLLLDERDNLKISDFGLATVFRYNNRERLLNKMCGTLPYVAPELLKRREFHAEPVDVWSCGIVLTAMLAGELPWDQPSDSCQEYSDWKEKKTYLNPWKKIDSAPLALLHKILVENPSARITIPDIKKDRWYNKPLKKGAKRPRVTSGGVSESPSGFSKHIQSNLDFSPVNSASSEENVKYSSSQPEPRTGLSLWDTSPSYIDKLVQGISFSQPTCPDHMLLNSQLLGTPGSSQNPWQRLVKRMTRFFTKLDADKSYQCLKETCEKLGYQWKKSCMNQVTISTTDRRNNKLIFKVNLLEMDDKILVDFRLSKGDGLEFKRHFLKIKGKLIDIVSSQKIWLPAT
The experiment in a line: Inhibition of CHK1 phosphorylation at S296 residue in human FOLFOX-resistant HCT116 cells after 24 hrs by Western blot analysis. Background: A western blot detects proteins with antibodies after separation by electrophoresis.

Test [18] addresses CDK9/Cyclin-T2 (Homo sapiens) (UniProt P50750+O60583). The test can be described thus: Inhibition of human CDK9/cyclin-T2 assessed as residual activity at 1 uM using KTFCGTPEYLAPEVRREPRILSEEEQEMFRDFDYIADWC as substrate by [gamma-33P]-ATP assay relative to control. Type of test: protein-complex assay.
Test [19] has as its target Proto-oncogene tyrosine-protein kinase receptor Ret (Homo sapiens) (UniProt P07949). The experiment in a line: Inhibition of human RET assessed as residual activity at 1 uM using KKKVSRSGLYRSPSMPENLNRPR as substrate by [gamma-33P]-ATP assay relative to control.
Test [20] has as its target Tyrosine-protein kinase ABL2 (Homo sapiens) (UniProt P42684). The test can be described thus: Inhibition of human ABL2 assessed as residual activity at 1 uM using EAIYAAPFAKKK as substrate by [gamma-33P]-ATP assay relative to control.
The target in test [21] is T1, Serine/threonine-protein kinase Chk1 (Homo sapiens). The experiment in a line: Inhibition of CHK1 phosphorylation at S317 residue in human HCT116 cells at 20 uM after 8 hrs by Western blot analysis. Type of test: cell-based.
Test [22] deals with Inhibitor of nuclear factor kappa-B kinase subunit alpha (Homo sapiens) (UniProt O15111). The test can be described thus: Inhibition of human IKKalpha assessed as residual activity at 1 uM using KKKKERLLDDRHDSGLDSMKDEE as substrate by [gamma-33P]-ATP assay relative to control.
Test [23] has as its target Dual serine/threonine and tyrosine protein kinase (Homo sapiens) (UniProt Q6XUX3). The experiment in a line: Inhibition of human RIPK5 assessed as residual activity at 1 uM using MBP as substrate by [gamma-33P]-ATP assay relative to control.

Sequence of Mitogen-activated protein kinase kinase kinase 19 (Homo sapiens) (Q56UN5 whole entry): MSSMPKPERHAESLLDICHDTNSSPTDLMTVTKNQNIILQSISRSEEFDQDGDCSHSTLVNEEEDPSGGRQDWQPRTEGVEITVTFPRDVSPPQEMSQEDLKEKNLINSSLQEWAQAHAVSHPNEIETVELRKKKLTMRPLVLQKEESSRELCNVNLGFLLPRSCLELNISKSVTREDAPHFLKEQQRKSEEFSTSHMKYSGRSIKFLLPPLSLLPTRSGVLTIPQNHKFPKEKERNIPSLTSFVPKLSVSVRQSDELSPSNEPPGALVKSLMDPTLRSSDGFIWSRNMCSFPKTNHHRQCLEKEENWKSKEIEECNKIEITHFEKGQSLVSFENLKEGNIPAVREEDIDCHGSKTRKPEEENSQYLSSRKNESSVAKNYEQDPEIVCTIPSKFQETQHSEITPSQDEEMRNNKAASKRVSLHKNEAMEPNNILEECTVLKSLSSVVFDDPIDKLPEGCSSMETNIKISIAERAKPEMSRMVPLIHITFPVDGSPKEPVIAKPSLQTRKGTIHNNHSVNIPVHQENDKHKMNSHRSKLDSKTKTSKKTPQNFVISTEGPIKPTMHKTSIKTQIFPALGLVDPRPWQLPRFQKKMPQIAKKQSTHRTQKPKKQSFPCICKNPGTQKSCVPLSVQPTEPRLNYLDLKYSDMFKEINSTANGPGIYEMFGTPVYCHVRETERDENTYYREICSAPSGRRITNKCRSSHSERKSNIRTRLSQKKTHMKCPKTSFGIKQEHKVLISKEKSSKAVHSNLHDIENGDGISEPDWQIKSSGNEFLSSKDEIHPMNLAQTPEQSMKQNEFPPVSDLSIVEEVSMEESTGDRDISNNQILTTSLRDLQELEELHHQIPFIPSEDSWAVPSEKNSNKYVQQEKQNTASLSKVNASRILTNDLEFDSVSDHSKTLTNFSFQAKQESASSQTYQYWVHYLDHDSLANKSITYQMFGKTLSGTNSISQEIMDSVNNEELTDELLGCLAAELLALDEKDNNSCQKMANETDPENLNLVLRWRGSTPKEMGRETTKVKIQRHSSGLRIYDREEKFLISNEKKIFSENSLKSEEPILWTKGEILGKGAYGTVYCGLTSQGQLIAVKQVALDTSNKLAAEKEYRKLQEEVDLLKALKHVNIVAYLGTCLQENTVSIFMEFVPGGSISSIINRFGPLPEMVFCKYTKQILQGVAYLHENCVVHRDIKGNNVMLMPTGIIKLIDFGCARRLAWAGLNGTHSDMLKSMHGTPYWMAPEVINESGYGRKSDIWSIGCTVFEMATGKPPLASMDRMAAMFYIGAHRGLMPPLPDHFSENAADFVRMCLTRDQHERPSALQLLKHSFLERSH
Sequence of Serine/threonine-protein kinase tousled-like 2 (Homo sapiens) (Q86UE8 whole entry, looked up): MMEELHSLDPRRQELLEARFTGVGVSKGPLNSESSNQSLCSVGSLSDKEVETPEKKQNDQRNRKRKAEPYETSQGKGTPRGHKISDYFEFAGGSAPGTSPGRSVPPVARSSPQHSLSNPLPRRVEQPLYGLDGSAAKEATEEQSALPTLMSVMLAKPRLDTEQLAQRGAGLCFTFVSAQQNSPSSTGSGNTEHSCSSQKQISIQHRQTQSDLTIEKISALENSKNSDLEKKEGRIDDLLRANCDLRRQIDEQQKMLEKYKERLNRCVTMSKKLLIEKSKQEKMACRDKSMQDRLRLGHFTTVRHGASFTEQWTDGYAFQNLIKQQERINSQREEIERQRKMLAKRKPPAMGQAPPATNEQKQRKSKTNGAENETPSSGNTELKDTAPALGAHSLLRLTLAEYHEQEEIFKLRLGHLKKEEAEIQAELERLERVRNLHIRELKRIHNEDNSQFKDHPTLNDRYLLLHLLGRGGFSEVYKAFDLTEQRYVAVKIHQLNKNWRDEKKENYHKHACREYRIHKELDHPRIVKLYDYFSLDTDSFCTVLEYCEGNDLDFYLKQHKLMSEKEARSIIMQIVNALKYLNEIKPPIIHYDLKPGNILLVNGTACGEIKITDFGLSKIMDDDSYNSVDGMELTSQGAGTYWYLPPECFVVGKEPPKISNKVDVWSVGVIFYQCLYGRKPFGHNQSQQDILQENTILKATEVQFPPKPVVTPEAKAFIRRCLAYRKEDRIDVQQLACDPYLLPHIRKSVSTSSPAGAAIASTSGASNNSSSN
Sequence of Mitogen-activated protein kinase kinase kinase 12 (Homo sapiens) (Q12852 whole entry): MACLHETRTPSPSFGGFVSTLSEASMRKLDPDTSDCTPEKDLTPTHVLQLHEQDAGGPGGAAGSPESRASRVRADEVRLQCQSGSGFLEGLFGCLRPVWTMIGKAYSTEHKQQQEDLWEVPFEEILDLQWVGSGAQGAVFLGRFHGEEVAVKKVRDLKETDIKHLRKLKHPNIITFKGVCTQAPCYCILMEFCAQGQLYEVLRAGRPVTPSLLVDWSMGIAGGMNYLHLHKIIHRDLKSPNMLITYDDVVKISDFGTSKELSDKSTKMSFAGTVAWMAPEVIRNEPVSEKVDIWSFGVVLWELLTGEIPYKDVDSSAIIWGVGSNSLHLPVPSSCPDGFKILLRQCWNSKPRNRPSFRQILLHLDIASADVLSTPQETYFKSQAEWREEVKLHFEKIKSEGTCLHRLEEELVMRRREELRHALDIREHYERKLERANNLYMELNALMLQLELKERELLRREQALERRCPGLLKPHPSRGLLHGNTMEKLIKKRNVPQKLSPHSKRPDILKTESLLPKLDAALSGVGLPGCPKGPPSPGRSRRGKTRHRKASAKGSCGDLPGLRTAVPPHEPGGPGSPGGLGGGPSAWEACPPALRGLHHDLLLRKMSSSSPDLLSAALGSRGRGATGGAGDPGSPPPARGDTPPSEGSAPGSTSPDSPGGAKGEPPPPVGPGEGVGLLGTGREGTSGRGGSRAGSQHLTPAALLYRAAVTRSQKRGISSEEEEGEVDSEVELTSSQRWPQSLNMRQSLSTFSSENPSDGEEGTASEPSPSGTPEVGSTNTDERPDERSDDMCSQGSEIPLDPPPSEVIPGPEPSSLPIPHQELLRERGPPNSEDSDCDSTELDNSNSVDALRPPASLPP
Sequence of Dual specificity mitogen-activated protein kinase kinase 1 (Homo sapiens) (Q02750 whole entry): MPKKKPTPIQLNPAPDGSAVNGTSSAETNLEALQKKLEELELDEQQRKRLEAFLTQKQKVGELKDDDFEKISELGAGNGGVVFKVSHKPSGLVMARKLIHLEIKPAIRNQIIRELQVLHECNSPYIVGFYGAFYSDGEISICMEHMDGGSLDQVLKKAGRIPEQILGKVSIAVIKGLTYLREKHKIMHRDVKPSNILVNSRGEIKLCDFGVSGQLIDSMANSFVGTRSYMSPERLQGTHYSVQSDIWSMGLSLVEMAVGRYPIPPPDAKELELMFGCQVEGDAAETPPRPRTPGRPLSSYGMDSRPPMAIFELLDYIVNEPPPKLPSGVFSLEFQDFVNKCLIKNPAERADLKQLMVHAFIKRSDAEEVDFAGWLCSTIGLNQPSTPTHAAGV
Sequence of Ephrin type-B receptor 3 (Homo sapiens) (P54753 whole entry): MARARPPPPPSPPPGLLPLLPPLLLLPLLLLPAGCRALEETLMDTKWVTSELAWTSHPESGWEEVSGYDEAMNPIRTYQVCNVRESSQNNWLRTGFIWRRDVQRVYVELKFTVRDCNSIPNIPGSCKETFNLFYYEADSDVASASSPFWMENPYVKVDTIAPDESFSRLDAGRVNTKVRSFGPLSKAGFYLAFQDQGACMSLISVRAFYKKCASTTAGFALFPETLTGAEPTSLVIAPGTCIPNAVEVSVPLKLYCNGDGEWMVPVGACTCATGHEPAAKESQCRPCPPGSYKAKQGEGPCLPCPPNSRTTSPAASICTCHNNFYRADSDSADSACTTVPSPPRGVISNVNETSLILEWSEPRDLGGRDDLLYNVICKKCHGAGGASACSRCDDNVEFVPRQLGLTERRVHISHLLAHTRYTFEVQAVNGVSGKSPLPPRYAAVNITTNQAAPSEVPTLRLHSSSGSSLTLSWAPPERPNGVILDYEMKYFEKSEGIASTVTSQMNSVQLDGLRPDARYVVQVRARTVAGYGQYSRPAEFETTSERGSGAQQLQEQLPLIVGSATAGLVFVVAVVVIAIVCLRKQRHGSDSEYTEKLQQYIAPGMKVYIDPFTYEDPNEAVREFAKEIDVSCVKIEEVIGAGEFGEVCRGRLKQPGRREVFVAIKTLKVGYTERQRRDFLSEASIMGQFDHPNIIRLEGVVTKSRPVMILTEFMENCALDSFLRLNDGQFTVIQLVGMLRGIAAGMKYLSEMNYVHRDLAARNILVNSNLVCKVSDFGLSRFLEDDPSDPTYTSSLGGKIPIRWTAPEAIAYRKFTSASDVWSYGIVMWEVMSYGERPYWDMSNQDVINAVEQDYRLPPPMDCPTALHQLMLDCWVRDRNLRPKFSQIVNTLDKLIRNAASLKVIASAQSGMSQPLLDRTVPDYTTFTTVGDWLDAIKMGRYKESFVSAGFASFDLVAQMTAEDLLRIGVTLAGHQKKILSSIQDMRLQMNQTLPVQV
Sequence of Calcium/calmodulin-dependent protein kinase type 1B (Homo sapiens) (Q6P2M8 whole entry): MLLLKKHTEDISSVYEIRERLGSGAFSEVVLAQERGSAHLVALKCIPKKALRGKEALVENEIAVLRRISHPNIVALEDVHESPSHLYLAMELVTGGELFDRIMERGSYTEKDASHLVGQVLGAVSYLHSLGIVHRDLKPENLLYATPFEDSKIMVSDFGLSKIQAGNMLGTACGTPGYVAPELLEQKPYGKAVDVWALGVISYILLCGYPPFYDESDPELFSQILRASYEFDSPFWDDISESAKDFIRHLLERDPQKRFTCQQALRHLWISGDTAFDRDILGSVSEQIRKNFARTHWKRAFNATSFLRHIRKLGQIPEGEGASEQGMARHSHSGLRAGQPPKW

Take `ClC/C=C/C[N+]12CN3CN(CN(C3)C1)C2`: the Activity in test [1] lay in the range of 92.7 to 94.5%; in [2], 91.2 to 91.8%; in test [3], 97.3 to 97.8%; in test [4] it was 93.7 to 95.3%; in test [5], 92 to 94.8%; in test [6], 97.5 to 97.7%. Moreover, the Activity in [7] was 87.8 to 88.7%; in [8], 94 to 94.8%; in test [9], 92.3 to 92.9%; in test [10], 94 to 94.8%; in [11] it was 93 to 93.5%; in [12], 95.7 to 96.8%. Further, the Activity in test [13] lay in the range of 91.9 to 94.8%; in [14] it was 94.4 to 96.6%; in test [15], 91.5 to 93.5%; in test [16] it was 71.9 to 74.8%; in [18], 95.7 to 97.6%; in test [19], 96.4 to 96.7%. In [17], the inhibition result is “Dose-dependent effect”.
With `C(=C\c1ccccc1)/C[N+]12CN3CN(CN(C3)C1)C2`, the Activity was in the range of 92.4 to 92.6% in [1]; 87.9 to 91.1% in test [2]; 91.7 to 94.8% in test [4]; 89.2 to 92.2% in [5]; 93.5 to 96.7% in [20]; 80.5 to 87.2% in [7]. Further, the Activity was in the range of 89.2 to 89.7% in test [9]; 93.8 to 96.3% in [10]; 94 to 96% in test [11]; 94.8 to 96% in test [12]; 93 to 94.8% in [14]; 94 to 95.2% in test [22]. Besides, the values for the Activity in test [16], in test [23] and in test [18] were 88.4 to 93.3%, 91 to 92.4% and 87 to 94.5%, respectively. For the same molecule, in test [21], the inhibition entry is “inactive”. In addition, the inhibition entry in test [17] is “Dose-dependent effect”.
